For experiment [1], the target named is T1, Protein deacetylase HDAC6 (Homo sapiens) (UniProt Q9UBN7).
T1 sequence (whole entry): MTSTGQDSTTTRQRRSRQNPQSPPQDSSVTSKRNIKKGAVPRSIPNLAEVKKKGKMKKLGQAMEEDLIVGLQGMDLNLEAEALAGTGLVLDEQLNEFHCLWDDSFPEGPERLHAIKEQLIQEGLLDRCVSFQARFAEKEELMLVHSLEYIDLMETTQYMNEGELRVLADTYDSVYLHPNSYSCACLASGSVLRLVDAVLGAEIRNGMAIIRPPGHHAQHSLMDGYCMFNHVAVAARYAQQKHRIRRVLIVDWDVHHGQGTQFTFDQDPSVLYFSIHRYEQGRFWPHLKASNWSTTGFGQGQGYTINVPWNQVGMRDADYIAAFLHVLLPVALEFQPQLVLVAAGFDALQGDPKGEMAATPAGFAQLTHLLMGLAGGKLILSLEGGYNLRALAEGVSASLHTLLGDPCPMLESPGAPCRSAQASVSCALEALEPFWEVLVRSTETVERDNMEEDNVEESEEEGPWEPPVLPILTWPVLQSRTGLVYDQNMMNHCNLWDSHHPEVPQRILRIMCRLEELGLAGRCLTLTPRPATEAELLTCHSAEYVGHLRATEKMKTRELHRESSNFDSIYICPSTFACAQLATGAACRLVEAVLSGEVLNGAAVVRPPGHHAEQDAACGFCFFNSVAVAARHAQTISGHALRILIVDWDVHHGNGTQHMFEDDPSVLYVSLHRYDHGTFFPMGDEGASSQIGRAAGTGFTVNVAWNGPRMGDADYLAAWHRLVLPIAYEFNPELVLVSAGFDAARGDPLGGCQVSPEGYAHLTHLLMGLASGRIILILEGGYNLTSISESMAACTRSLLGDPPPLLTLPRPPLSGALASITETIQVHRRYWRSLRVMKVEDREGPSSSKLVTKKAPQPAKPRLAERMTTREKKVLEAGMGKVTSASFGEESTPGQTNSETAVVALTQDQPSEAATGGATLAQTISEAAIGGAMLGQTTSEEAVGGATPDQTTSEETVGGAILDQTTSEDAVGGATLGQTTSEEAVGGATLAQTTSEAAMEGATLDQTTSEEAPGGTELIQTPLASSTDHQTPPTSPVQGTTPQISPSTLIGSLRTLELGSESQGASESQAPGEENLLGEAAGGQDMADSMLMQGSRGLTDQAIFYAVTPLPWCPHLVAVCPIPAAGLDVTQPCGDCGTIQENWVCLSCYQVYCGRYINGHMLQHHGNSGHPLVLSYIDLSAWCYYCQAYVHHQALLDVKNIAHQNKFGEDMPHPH
Briefly: Binding affinity to N-terminal GST-tagged human full length HDAC6 expressed in baculovirus infected Sf9 cells using Fluor-de-Lys Green as substrate assessed as dissociation constant (koff).

In experiment [2] the target is T1, Protein deacetylase HDAC6 (Homo sapiens). Briefly: Binding affinity to N-terminal GST-tagged human full length HDAC6 expressed in baculovirus infected Sf9 cells using Fluor-de-Lys Green as substrate assessed as residence time.
Experiment [3] shares this target. Briefly: Binding affinity to N-terminal GST-tagged human full length HDAC6 expressed in baculovirus infected Sf9 cells using Fluor-de-Lys Green as substrate assessed as dissociation constant (koff) by jump dilution assay.
Experiment [4] shares this target. Briefly: Binding affinity to N-terminal GST-tagged human full length HDAC6 expressed in baculovirus infected Sf9 cells using Fluor-de-Lys Green as substrate assessed as residence time by jump dilution assay.
The target is the same in experiment [5]. Briefly: Binding affinity to N-terminal GST-tagged human full length HDAC6 expressed in baculovirus infected Sf9 cells using Fluor-de-Lys Green as substrate assessed as association constant (kon).
Experiment [6] has as its target T2, Protein deacetylase HDAC6 (Homo sapiens, UniProt Q9UBN7).
T2 sequence (Q9UBN7 whole entry): T1 sequence (whole entry)
Briefly: Binding affinity to N-terminal GST-tagged human full length HDAC6 expressed in baculovirus infected Sf9 cells using Fluor-de-Lys Green as substrate assessed as inhibition constant.

Experiment [7] has as its target T2, Protein deacetylase HDAC6. Briefly: Inhibition of N-terminal GST-tagged human full length HDAC6 expressed in baculovirus infected Sf9 cells using Fluor-de-Lys Green as substrate.
In experiment [8] the target is T3, Histone deacetylase 3 (Homo sapiens, UniProt O15379). Briefly: Binding affinity to HDAC3 (unknown origin) assessed as inhibition constant.
T3 sequence (O15379 whole entry): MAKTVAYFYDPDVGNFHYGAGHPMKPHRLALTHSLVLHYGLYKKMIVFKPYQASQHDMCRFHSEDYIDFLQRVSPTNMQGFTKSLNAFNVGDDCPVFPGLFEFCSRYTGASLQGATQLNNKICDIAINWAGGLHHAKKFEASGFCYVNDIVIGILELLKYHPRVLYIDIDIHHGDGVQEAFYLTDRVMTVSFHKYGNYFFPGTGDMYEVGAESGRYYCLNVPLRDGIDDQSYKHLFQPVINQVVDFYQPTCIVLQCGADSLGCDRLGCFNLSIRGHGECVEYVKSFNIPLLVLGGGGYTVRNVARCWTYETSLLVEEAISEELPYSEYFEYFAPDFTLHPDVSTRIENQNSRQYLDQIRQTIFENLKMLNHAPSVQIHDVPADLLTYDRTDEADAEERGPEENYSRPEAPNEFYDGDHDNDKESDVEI
Experiment [9] has as its target T1, Protein deacetylase HDAC6 (Homo sapiens). Briefly: Binding affinity to recombinant human HDAC6 using Ac-Leu-Gly-Lys(Ac)-AMC as substrate measured after 60 mins assessed as binding constant (k-2) by fluorescence based assay.
Experiment [10] addresses T4, Histone deacetylase 11 (Homo sapiens) (UniProt Q96DB2).
T4 sequence (whole entry): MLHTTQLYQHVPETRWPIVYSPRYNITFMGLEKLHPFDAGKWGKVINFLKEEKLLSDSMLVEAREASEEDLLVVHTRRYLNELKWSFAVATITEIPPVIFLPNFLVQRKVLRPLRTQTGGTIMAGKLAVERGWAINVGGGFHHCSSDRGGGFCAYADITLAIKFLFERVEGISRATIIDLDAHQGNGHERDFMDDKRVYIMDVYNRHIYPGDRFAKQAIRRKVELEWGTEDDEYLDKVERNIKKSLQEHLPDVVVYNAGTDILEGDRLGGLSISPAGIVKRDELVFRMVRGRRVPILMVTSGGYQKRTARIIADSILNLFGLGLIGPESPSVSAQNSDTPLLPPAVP
Briefly: Binding affinity to human HDAC11 assessed as binding constant (k2).

For experiment [11], the target named is T2, Protein deacetylase HDAC6. Briefly: Binding affinity to recombinant human HDAC6 using Ac-Leu-Gly-Lys(Ac)-AMC as substrate measured after 60 mins assessed as inhibition constant by fluorescence based assay.
Experiment [12] concerns the target T3, Histone deacetylase 3. Briefly: Binding affinity to HDAC3 (unknown origin) assessed as inhibition constant(ki,1).
The target in experiment [13] is T3, Histone deacetylase 3. Briefly: Binding affinity to HDAC3 (unknown origin) assessed as residence time.
Experiment [14] addresses T2, Protein deacetylase HDAC6. Briefly: Binding affinity to recombinant human HDAC6 using Ac-Leu-Gly-Lys(Ac)-AMC as substrate measured after 60 mins assessed as inhibition constant (ki,1) by fluorescence based assay.
The next experiment addresses Histone deacetylase 2 (Homo sapiens, UniProt Q92769). Briefly: Binding affinity to HDAC2 (unknown origin) assessed as inhibition constant(ki,1).
In another experiment the target is T5, Histone deacetylase 11 (Homo sapiens, UniProt Q96DB2).
T5 sequence (Q96DB2 whole entry): T4 sequence (whole entry)
Briefly: Binding affinity to human HDAC11 assessed as inhibition constant (ki,1).

The target of experiment [15] is T1, Protein deacetylase HDAC6 (Homo sapiens). Briefly: Binding affinity to recombinant human HDAC6 using Ac-Leu-Gly-Lys(Ac)-AMC as substrate assessed as residence time.
Experiment [16] deals with T4, Histone deacetylase 11 (Homo sapiens). Briefly: Binding affinity to human HDAC11 assessed as binding constant (k-2).
The target in the next experiment is Histone deacetylase 1 (Homo sapiens, UniProt Q13547). Briefly: Binding affinity to HDAC1 (unknown origin) assessed as inhibition constant(ki,1).
Histone deacetylase 1, sequence (Q13547 whole entry): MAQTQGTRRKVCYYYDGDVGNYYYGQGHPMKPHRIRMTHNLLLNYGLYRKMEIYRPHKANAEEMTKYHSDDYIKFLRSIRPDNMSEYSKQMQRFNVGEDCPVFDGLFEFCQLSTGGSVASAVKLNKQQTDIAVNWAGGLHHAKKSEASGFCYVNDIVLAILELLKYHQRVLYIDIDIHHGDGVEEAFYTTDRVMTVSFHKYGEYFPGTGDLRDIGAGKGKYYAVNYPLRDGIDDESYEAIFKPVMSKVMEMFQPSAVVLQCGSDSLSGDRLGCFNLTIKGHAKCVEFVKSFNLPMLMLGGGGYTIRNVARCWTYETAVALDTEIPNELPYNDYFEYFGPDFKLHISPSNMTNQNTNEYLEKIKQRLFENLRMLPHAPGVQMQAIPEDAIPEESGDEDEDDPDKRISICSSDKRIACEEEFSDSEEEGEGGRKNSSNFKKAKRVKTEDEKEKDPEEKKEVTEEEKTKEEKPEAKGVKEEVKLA
The target in experiment [17] is T1, Protein deacetylase HDAC6 (Homo sapiens). Briefly: Binding affinity to recombinant human HDAC6 using Ac-Leu-Gly-Lys(Ac)-AMC as substrate measured after 60 mins assessed as binding constant (k2) by fluorescence based assay.
The target in experiment [18] is T3, Histone deacetylase 3. Briefly: Binding affinity to HDAC3 (unknown origin) assessed as binding constant(k2).
Experiment [19] addresses T3, Histone deacetylase 3. Briefly: Binding affinity to HDAC3 (unknown origin) assessed as binding constant(k-2).

pIC50, pKi: −log10 of the molar value. Non-standard residues stand in square brackets, D forms with d. Residues, ends and D or L forms follow the SMILES beside them. *: point of attachment. Asu = N[C@@H](CCCCCC(=O)O)C(=O)O; dPip = O=C(O)[C@H]1CCCCN1; NHOH = ON*

Histone deacetylase 2, sequence (Q92769 whole entry): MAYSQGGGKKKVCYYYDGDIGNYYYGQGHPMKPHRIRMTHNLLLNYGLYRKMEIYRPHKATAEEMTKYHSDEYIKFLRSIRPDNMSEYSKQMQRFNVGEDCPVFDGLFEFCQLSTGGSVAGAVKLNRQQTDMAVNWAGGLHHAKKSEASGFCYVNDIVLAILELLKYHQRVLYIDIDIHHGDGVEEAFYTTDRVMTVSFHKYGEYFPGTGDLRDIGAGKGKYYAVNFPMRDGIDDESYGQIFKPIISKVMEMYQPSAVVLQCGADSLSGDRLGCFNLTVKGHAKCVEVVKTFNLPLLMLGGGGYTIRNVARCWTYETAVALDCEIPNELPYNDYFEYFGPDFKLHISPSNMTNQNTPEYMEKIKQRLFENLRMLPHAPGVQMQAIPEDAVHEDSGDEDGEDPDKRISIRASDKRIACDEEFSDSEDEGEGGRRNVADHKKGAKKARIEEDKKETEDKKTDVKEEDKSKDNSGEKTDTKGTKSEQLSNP

For orientation: pKi means −log10 of the Ki, conventionally taken in molar units. A word on the pIC50: it is the IC50 on a negative log10 scale, so that one unit is a factor of ten. With `FC(F)c1nnc(-c2ccc(Cn3cc(-c4ccc(NC5N=CCN5)cc4)nn3)cc2)o1` (configuration not stated), the figures for the K in experiment [1], in experiment [3] and in experiment [5] were 4.6 10^-3/min, 3.3 10^-3/min and 9.6 10^5/min/M, respectively. The TIME in [2] was 3.6 h; in [4], 5.1 h. In addition, the pKi in [6] is 8.32. This compound also gave a pIC50 in experiment [7] of 8.11.
Take `CC[C@H](C)[C@@H]1NC(=O)[C@H](Cc2c[nH]c3ccccc23)NC(=O)[C@H](CCCCCC(=O)NO)NC(=O)[C@H]2CCCCN2C1=O` (cyclo([Asu](NHOH)WI[dPip])): the negative logarithm of the Ki (pKi) at Histone deacetylase 3 [8] was 10.40; in [11], roughly 8.44; at Histone deacetylase 3 [12], 8.80; in [14], 7.64; at Histone deacetylase 2, 9.46; on Histone deacetylase 11, 7.74. The pKi at Histone deacetylase 1 was 9.49. Moreover, the K is 0.01 min⁻¹ in experiment [9]; 0.73 min⁻¹ in [10]; 0 min⁻¹ in [16]; 0.17 min⁻¹ in experiment [17]; 0.158 min⁻¹ on Histone deacetylase 3 [18]; 0.009 min⁻¹ on Histone deacetylase 3 [19]. In addition, the TIME at Histone deacetylase 3 [13] was 1.85 h; in experiment [15], 1.67 h.

Values taken from ChEMBL document CHEMBL5321294, “Evolution of Slow-Binding Inhibitors Targeting Histone Deacetylase Isoforms” (J Med Chem, 2023).
